Test: recombinant UMI read abundance after kanamycin selection (control-corrected) (log10(CPM+1)); higher = more efficient recombination; extreme values may be limits of the assay; sequences stand for … in AGTGCAGAGAAAATCGGCCAGTTTTCTCTGCCTGCAGTCCGCATGCCGTGGGACCCCTTGGGTTCTAACCTGTTGCCTAGATTTATGCAGCGGACTGCCTTTCTCCCAAAGTGATAAACCGG…AGGTTGGTTTCACT; site = the 11-nt donor
Protocol: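 Pooled E. coli donor-specificity screen for the IS621 bridge recombinase. Each library member carries a reprogrammed 11-nt donor and a full-length LE bridge RNA expressed in cis from the natural promoter, with a paired donor-binding loop (8-nt LDG + 4-nt RDG) and a target-binding loop fixed to T5. It is co-electroporated with a T5 target plasmid; recombinase is induced with 0.07 mM IPTG and recombinants are selected on kanamycin. UMIs are counted as CPM, averaged over two biological replicates and corrected by the unselected control. Molecule = full bridge RNA written as DNA, built from the T5 scaffold: LDG = donor specificity nt 1-8, RDG = reverse complement of nt 8-11.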
With “ACACTAGCATGGACCGGTTTTCCCGGTAATCCGTATTTGTG (site ACACTAGCTCA)” the “recombinant UMI read abundance (log10)” value was 1.62. With “ACACTATCATGGACCGGTTTTCCCGGTAATCCGTATTTGCA (site ACAATATCTTG)” the “recombinant UMI read abundance (log10)” value was 2.11. For “ACACTATCATGGACCGGTTTTCCCGGTAATCCGTATTTGCA (site ACACTATCTTG)”, the “recombinant UMI read abundance (log10)” value was 2.85. With “ACACTATCATGGACCGGTTTTCCCGGTAATCCGTATTTGCA (site ACAGTATCTTG)” the “recombinant UMI read abundance (log10)” value was 1.89. For “ACACTATCATGGACCGGTTTTCCCGGTAATCCGTATTTGCA (site ACATTATCTTG)”, the “recombinant UMI read abundance (log10)” value was 2.21. With “ACAGAAACATGGACCGGTTTTCCCGGTAATCCGTATTTGCA (site ACAGAAACTTG)” the “recombinant UMI read abundance (log10)” value was 2.78. For “ACAGAAACATGGACCGGTTTTCCCGGTAATCCGTATTTGCA (site ACAGTATCTTG)”, the “recombinant UMI read abundance (log10)” value was 0. For “ACAGCAGCATGGACCGGTTTTCCCGGTAATCCGTATTTGCA (site ACAGCAGCTTG)”, the “recombinant UMI read abundance (log10)” value was 2.49. In the case of “ACAGCAGCATGGACCGGTTTTCCCGGTAATCCGTATTTGCA (site ACAGTATCTTG)”, the “recombinant UMI read abundance (log10)” value is reported as 0. In the case of “ACAGCGTCATGGACCGGTTTTCCCGGTAATCCGTATTTGAC (site ACAGCGTCTGT)”, the “recombinant UMI read abundance (log10)” value is reported as 3.29. With “ACAGCTACATGGACCGGTTTTCCCGGTAATCCGTATTTGTG (site ACAACTACTCA)” the “recombinant UMI read abundance (log10)” value was 0.815. With “ACAGCTACATGGACCGGTTTTCCCGGTAATCCGTATTTGTG (site ACACCTACTCA)” the “recombinant UMI read abundance (log10)” value was 0.156. For “ACAGCTACATGGACCGGTTTTCCCGGTAATCCGTATTTGTG (site ACAGCTACTCA)”, the “recombinant UMI read abundance (log10)” value was 1.44. In the case of “ACAGCTACATGGACCGGTTTTCCCGGTAATCCGTATTTGTG (site ACATCTACTCA)”, the “recombinant UMI read abundance (log10)” value is reported as 0.0498. In the case of “ACAGGAACATGGACCGGTTTTCCCGGTAATCCGTATTTGTC (site ACAAGAACTGA)”, the “recombinant UMI read abundance (log10)” value is reported as 1.18. In the case of “ACAGGAACATGGACCGGTTTTCCCGGTAATCCGTATTTGTC (site ACACGAACTGA)”, the “recombinant UMI read abundance (log10)” value is reported as 0.428. For “ACAGGAACATGGACCGGTTTTCCCGGTAATCCGTATTTGTC (site ACAGGAACTGA)”, the “recombinant UMI read abundance (log10)” value was 2.43. In the case of “ACAGGAACATGGACCGGTTTTCCCGGTAATCCGTATTTGTC (site ACATGAACTGA)”, the “recombinant UMI read abundance (log10)” value is reported as 0.289. For “ACAGGACCATGGACCGGTTTTCCCGGTAATCCGTATTTGGA (site ACAGGACCTTC)”, the “recombinant UMI read abundance (log10)” value was 0.00625. With “ACAGGATCATGGACCGGTTTTCCCGGTAATCCGTATTTGCC (site ACAGGATCTGG)” the “recombinant UMI read abundance (log10)” value was 2.27. In the case of “ACAGGATCATGGACCGGTTTTCCCGGTAATCCGTATTTGCC (site ACAGTATCTTG)”, the “recombinant UMI read abundance (log10)” value is reported as 0. With “ACAGGGTCATGGACCGGTTTTCCCGGTAATCCGTATTTGCA (site ACAGGGTCTTG)” the “recombinant UMI read abundance (log10)” value was 3.2. In the case of “ACAGGGTCATGGACCGGTTTTCCCGGTAATCCGTATTTGCA (site ACAGTATCTTG)”, the “recombinant UMI read abundance (log10)” value is reported as 1.89. In the case of “ACAGTACCATGGACCGGTTTTCCCGGTAATCCGTATTTGCC (site ACAGTACCTGG)”, the “recombinant UMI read abundance (log10)” value is reported as 0. With “ACAGTACCATGGACCGGTTTTCCCGGTAATCCGTATTTGCC (site ACAGTATCTTG)” the “recombinant UMI read abundance (log10)” value was 0.966. With “ACAGTAGCATGGACCGGTTTTCCCGGTAATCCGTATTTGTA (site ACAGTAGCTTA)” the “recombinant UMI read abundance (log10)” value was 2.87. In the case of “ACAGTAGCATGGACCGGTTTTCCCGGTAATCCGTATTTGTA (site ACAGTATCTTG)”, the “recombinant UMI read abundance (log10)” value is reported as 1.49. For “ACAGTATCATGGACCGGTTTTCCCGGTAATCCGTATTTGCG (site ACAGTATCTAG)”, the “recombinant UMI read abundance (log10)” value was 2.18. In the case of “ACAGTATCATGGACCGGTTTTCCCGGTAATCCGTATTTGCG (site ACAGTATCTCG)”, the “recombinant UMI read abundance (log10)” value is reported as 3.51. For “ACAGTATCATGGACCGGTTTTCCCGGTAATCCGTATTTGCG (site ACAGTATCTGG)”, the “recombinant UMI read abundance (log10)” value was 2.14. With “ACAGTATCATGGACCGGTTTTCCCGGTAATCCGTATTTGCG (site ACAGTATCTTG)” the “recombinant UMI read abundance (log10)” value was 2.57. With “ACAGTATCATGGACCGGTTTTCCCGGTAATCCGTATTTGTG (site ACAGTATCTCA)” the “recombinant UMI read abundance (log10)” value was 3.03. In the case of “ACAGTATCATGGACCGGTTTTCCCGGTAATCCGTATTTGTG (site ACAGTATCTTG)”, the “recombinant UMI read abundance (log10)” value is reported as 1.03. For “ACATAAGCATGGACCGGTTTTCCCGGTAATCCGTATTTGAA (site ACATAAGCTTT)”, the “recombinant UMI read abundance (log10)” value was 2.7. With “ACATATACATGGACCGGTTTTCCCGGTAATCCGTATTTGTG (site ACATATACTCA)” the “recombinant UMI read abundance (log10)” value was 1.81. With “ACATATACATGGACCGGTTTTCCCGGTAATCCGTATTTGTG (site ACATCTACTCA)” the “recombinant UMI read abundance (log10)” value was 0.0121.
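Further: IS621 bridge recombinase in Escherichia coli cells against a fixed T5 target plasmid.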
